Results reported in publication PMC3158291 (Journal of medicinal chemistry, 2011).
In brackets after ≈: the same amount, converted by molar mass.

How the values were obtained:
[1] = test system: Mycobacterium tuberculosis (Mtb), replicating; test: Minimum Inhibitory Concentration; type: cell-based; details: for Mtb MIC99 μM (±SD): replicating (aerobic) Mtb, average ± SD of multiple measurements; for MIC99: Mycobacterium tuberculosis, read-out: Mtb MIC99 μM (±SD)
[2] = test system: Mycobacterium tuberculosis (Mtb), non-replicating; test: Minimum Anaerobicidal Concentration; type: cell-based; details: non-replicating (anaerobic) Mtb; average ± SD of multiple measurements
[3] = Stability in mouse liver microsomes; type: in vitro ADME; details: calculated from intrinsic clearance in mouse liver microsomes, method of ref 21
[4] = In vivo pharmacokinetic study, intravenous 5mg/kg; details: mice, intravenous injection at 5mg/kg

| Molecule | Predicted hepatic extraction ratio [3] [%] | other results |
| --- | --- | --- |
| 2−((S)−2−Nitro−6,7−dihydro−5H−imidazo[2,1−b][1,3]oxazin−6−ylamino)−2−(4−trifluoromethoxyphenyl)−ethanol [Compound 17i] |  | Mtb MIC99 μM (±SD) [1]: 0.13 ± 0.04 µM; Mtb MAC μM (±SD) [2]: 23 ± 6 µM |
| CCC(=O)N(Cc1ccc(OC(F)(F)F)cc1)[C@@H]1COc2nc([N+](=O)[O-])cn2C1 [Compound 4b, (S)-N-(2-Nitro-6,7-dihydro-5H-imidazo[2,1-b][1,3]oxazin-6-yl)-N-(4-trifluoromethoxybenzyl)-propionamide] |  | Mtb MIC99 μM (±SD) [1]: Insoluble |
| CN(Cc1ccc(OC(F)(F)F)cc1)[C@@H]1COc2nc([N+](=O)[O-])cn2C1 [Compound 5a, (S)-N-Methyl-2-nitro-N-4-trifluoromethoxybenzyl-6,7-dihydro-5H-imidazo[2,1-b][1,3]oxazin-6-amine] | 85 |  |
| CCCN(Cc1ccc(OC(F)(F)F)cc1)[C@@H]1COc2nc([N+](=O)[O-])cn2C1 [Compound 5b, (S)-2-Nitro-N-propyl-N-(4-trifluoromethoxybenzyl)-6,7-dihydro-5H-imidazo[2,1-b][1,3]oxazin-6-amine] | 95 |  |
| CC(C)N(Cc1ccc(OC(F)(F)F)cc1)[C@@H]1COc2nc([N+](=O)[O-])cn2C1 [Compound 5c, (S)-N-Isopropyl-2-nitro-N-(4-trifluoromethoxybenzyl)-6,7-dihydro-5H-imidazo[2,1-b][1,3]oxazin-6-amine] | 95 |  |
| O=[N+]([O-])c1cn2c(n1)OC[C@@H](NCc1ccc(OC(F)(F)F)cc1Oc1ccccc1)C2 [Compound 32d, (S)-2-Nitro-N-(2-phenoxy-4-trifluoromethoxybenzyl)-6,7-dihydro-5H-imidazo[2,1-b][1,3]oxazin-6-amine] | 90 |  |
| O=[N+]([O-])c1cn2c(n1)OC[C@@H](NCc1ccc(OC(F)(F)F)cc1OCC1CC1)C2 [Compound 32e, (S)-N-(2-Cyclopropylmethoxy-4-trifluoromethoxybenzyl)-2-nitro-6,7-dihydro-5H-imidazo[2,1-b][1,3]oxazin-6-amine] | 97 |  |
| O=[N+]([O-])c1cn2c(n1)OC[C@@H](NCc1ccc(OC(F)(F)F)cc1OC1CC1)C2 [Compound 32f, (S)-N-(2-Cyclopropoxy-4-trifluoromethoxybenzyl)-2-nitro-6,7-dihydro-5H-imidazo[2,1-b][1,3]oxazin-6-amine] | 87 |  |
| O=[N+]([O-])c1cn2c(n1)OC[C@@H](NCc1ccc(OC(F)(F)F)cc1O)C2 [Compound 32g, (S)-2-((2-Nitro-6,7-dihydro-5H-imidazo[2,1-b][1,3]oxazin-6-ylamino)methyl)-5-trifluoromethoxyphenol] | 81 |  |
| O=[N+]([O-])c1cn2c(n1)OC[C@@H](NCc1ccc(OC(F)(F)F)cc1F)C2 [Compound 41a, (S)-N-(2-Fluoro-4-(trifluoromethoxy)benzyl)-2-nitro-6,7-dihydro-5H-imidazo[2,1-b][1,3]oxazin-6-amine] | 81 | MIC99 [1]: 0.13 ± 0.06 µM (≈ 0.0489 µg/mL) |
| O=[N+]([O-])c1cn2c(n1)OC[C@@H](NCc1ccc(OC(F)(F)F)cc1Cl)C2 [Compound 41b, (S)-N-(2-Chloro-4-trifluoromethoxybenzyl)-2-nitro-6,7-dihydro-5H-imidazo[2,1-b][1,3]oxazin-6-amine] | 75 | MIC99 [1]: 0.12 ± 0.05 µM (≈ 0.0471 µg/mL) |
| O=[N+]([O-])c1cn2c(n1)OC[C@@H](NCc1ccc(OC(F)(F)F)c(F)c1)C2 [Compound 56a, (S)-N-(3-Fluoro-4-trifluoromethoxybenzyl)-2-nitro-6,7-dihydro-5H-imidazo[2,1-b][1,3]oxazin-6-amine] | 72 | in vivo clearance [4]: low to moderate clearance; systemic exposure [4]: good systemic exposure |
| O=[N+]([O-])c1cn2c(n1)OC[C@@H](NCc1ccc(OC(F)(F)F)c(Cl)c1)C2 [Compound 56b, (S)-N-(3-Chloro-4-trifluoromethoxybenzyl)-2-nitro-6,7-dihydro-5H-imidazo[2,1-b][1,3]oxazin-6-amine] |  | in vivo clearance [4]: low to moderate clearance; systemic exposure [4]: good systemic exposure |
| O=[N+]([O-])c1cn2c(n1)OC[C@@H](NCc1ccc(OC(F)(F)F)c(Oc3ccccc3)c1)C2 [Compound 56e, (S)-2-Nitro-N-(3-phenoxy-4-(trifluoromethoxy)benzyl)-6,7-dihydro-5H-imidazo[2,1-b][1,3]oxazin-6-amine] | 87 |  |
| O=[N+]([O-])c1cn2c(n1)OC[C@@H](NCc1ccc(OC(F)(F)F)c(O)c1)C2 [Compound 56i, (S)-5-((2-Nitro-6,7-dihydro-5H-imidazo[2,1-b][1,3]oxazin-6-ylamino)methyl)-2-(trifluoromethoxy)-phenol] |  | in vivo clearance [4]: cleared more rapidly; systemic exposure [4]: low systemic exposure |
